Reference: publication PMC7064771, “Repurposed Drugs That Block the Gonococcus-Complement Receptor 3 Interaction Can Prevent and Cure Gonococcal Infection of Primary Human Cervical Epithelial Cells” (mBio, 2020)
Entries after “also recorded” stand apart in the source; their conditions may differ.

How the values were obtained:
[1] = tested on: N. gonorrhoeae adherence to CHO-neo cells; assay: Fluorometric adherence assay, CHO-neo cells; format: cell-based, Chinese hamster; settings: 1-h infection; cells do not express CR3
Procedure: (§1) Fluorometric adherence assays were performed essentially as described previously ([36]). In brief, N. gonorrhoeae MS11 gfp was used to challenge (1 h) Pex or CHO cells simultaneously with peptide or drug competitor. Infected (devoid of peptide or drug) and uninfected (with peptide, drug, or dimethyl sulfoxide [DMSO] vehicle) control cell assays were treated in parallel with competitive peptide/drug inhibition assays. Fluorescence (485 nm excitation, 528 nm emission) intensity, corresponding to bacterial adherence, was recorded using a Synergy HT multimode microplate reader (BioTek Instruments, Winooski, VT, USA). Blank wells, devoid of Pex or CHO cells, were inoculated with bacteria and served as a control for nonspecific binding. Each assay was performed in triplicates on 3 separate occasions. Peptides used are described in Table S1. A nonparametric analysis of variance (ANOVA) was used to determine the statistical significance of the calculated mean of bacterial adherence.

N. gonorrhoeae strains = assay: Well diffusion assay; format: cell-based, Neisseria gonorrhoeae; settings: 100 pM to 100 μM in wells, overnight
Procedure: Well diffusion assays were performed essentially as described previously ([56]). Briefly, N. gonorrhoeae strains were spread uniformly across the surfaces of GC agar plates at a culture density of 10^7 bacteria per ml. Wells were then punctured within the agar surface to which carbamazepine or methyldopa (100 pM to 100 μM), 0.2 μg/ml ceftriaxone, 10 μg/ml ciprofloxacin, or 1% DMSO (vehicle control) was added. Following an overnight incubation (37°C, 5% CO2), inhibition of N. gonorrhoeae growth was measured as the diameter (in millimeters) of the area of clearing surrounding (and inclusive of) each well on each agar plate, i.e., the zone of inhibition (ZOI). For agar plates in which a ZOI was not visible, data were recorded as the diameter of the well (6 mm). Assays were performed in triplicates on 3 separate occasions. Statistical significance of data obtained was determined using a Student's t test.

[2] = tested on: N. gonorrhoeae infection of Pex cells
Procedure: Infection studies were performed as previously described with modification using a multiplicity of infection of 100 ([44]). To establish infection before treatment, Pex cells were challenged with N. gonorrhoeae for 90 min. The infection medium was then removed, the cells were rinsed thrice, and fresh medium containing 0.1% DMSO (vehicle control), carbamazepine (100 pM to 100 μM), methyldopa (100 pM to 100 μM), or ceftriaxone (0.1 μg/ml or 0.5 μg/ml, positive control) was added. Infections then proceeded for an additional 24 h or 48 h, after which, the infection medium was removed. Pex cell monolayers were subsequently lysed, serial dilutions of the Pex cell lysates were plated, and viable gonococci were enumerated by counting CFU after 48 h of incubation (37°C, 5% CO2). For sequential infection assays, viable bacterial colonies that survived a treatment assay were harvested from the enumeration (CFU) plates and used to inoculate new Pex cell monolayers. For these sequential assays, each infection (the original infection or the infection with bacteria that had survived the original infection) proceeded for 24 h. Pex cells were then processed, and bacteria were enumerated, as described above. For all assays, the percentage of N. gonorrhoeae that survived carbamazepine, methyldopa, or ceftriaxone treatment was determined as a function of bacteria that survived DMSO treatment (set to 100%). All assays were performed in triplicates on 3 separate occasions. A nonparametric ANOVA was used to determine the statistical significance of bacterial survival.

human rI-domain [3] = biological target: T1, human rI-domain (Homo sapiens, UniProt P11215); assay: Repurposed drug SPR against human CR3 I-domain (single-cycle kinetics); settings: 10 nM to 0.625 nM, read-out: KD, binding to human rI-domain
T1 construct: Recombinant human and mouse I-domain proteins were made and purified as previously described; made in house
Procedure: Human rI-domain was immobilized onto a CM5 sensor chip with a blank control flow cell as described above. A combination of two FDA-approved drug libraries, Microsource-CPOZ (2,400 drugs) and ML Drug (741 drugs), was purchased from Compounds Australia. […] A single-concentration injection screen (yes/no) binding assay was performed. Binding was determined based on the response unit shift (equal to the molecular weight-corrected response units of the positive-control glycan) of the stability of the binding phase of the dissociation cycle. […] For carbamazepine and methyldopa, saturation occurred between 1.6 nM and 8 nM, and so a new concentration range (10 nM to 0.625 nM) was tested. […] All SPR sensorgrams and result plots described above were analyzed with Biacore S200 evaluation software (GE Healthcare Life Sciences). A literature review was used to evaluate the remaining drugs for known long-term safety in humans and known therapeutic concentrations.

[4] = orally administered, prescribed use; cited from earlier work
human rI-domain [5] = biological target: T1, human rI-domain; assay: Direct competition SPR, drug versus N. gonorrhoeae MS11 pilin; format: binding; settings: drug and pilin at 1 μM
[6] = tested on: N. gonorrhoeae adherence to CHO-CR3 cells; assay: Fluorometric adherence assay, CHO-CR3 cells; format: cell-based, Chinese hamster; settings: 1-h infection with GFP-expressing N. gonorrhoeae, competitor added simultaneously
Procedure: as §1

[7] = tested on: N. gonorrhoeae adherence to Pex cells; assay: Fluorometric adherence assay, Pex cells; format: cell-based, human; settings: 1-h infection with GFP-expressing N. gonorrhoeae, competitor added simultaneously
Procedure: as §1

T1 sequence (P11215 150-328 limits assumed): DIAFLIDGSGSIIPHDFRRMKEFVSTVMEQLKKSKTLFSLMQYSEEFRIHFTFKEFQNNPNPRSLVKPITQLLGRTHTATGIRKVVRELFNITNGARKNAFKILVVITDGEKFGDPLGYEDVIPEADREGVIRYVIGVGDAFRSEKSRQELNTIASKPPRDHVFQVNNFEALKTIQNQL

NC(=O)N1c2ccccc2C=Cc2ccccc21 [carbamazepine]
Gonococcal adherence to CHO-neo cells (fluorescence) [1]: no effect; also recorded: but not to CHO-neo cells | Effect on gonococcal viability in the absence of Pex cells (zone of inhibition) (N. gonorrhoeae strains): neither carbamazepine nor methyldopa had an effect; also recorded: no effect | N. gonorrhoeae strain MS11 survival ([2]; 24 h posttreatment, 100 pM to 100 μM): dose-dependent reductions | Numbers of viable gonococci, low-passage-number gonococcal isolates ([2]; 24 h posttreatment, established Pex cell infections): significant reductions | Killing of survivor population in second sequential infection ([2]; bacteria harvested from a 24-h treated infection, re-used and treated again for 24 h): 100% | Efficacy in treating multidrug-resistant gonococci compared with ceftriaxone ([2]; panel of multidrug-resistant N. gonorrhoeae isolates): more effective than ceftriaxone | Kd (human rI-domain [3]): 2.12 nM | Concentration in serum [4]: ~17 µM | Blocking of the interaction of N. gonorrhoeae MS11 pilin with rCR3 or rI-domain (human rI-domain [5]): completely blocked | Gonococcal adherence to CHO-CR3 cells (fluorescence) [6]: dose-dependent decrease; also recorded: decreased in a dose-dependent manner | Gonococcal adherence to Pex cells (fluorescence) [7]: dose-dependent decrease; also recorded: decreased in a dose-dependent manner
